The record followed here is US20260007681A1, “INDOLE DERIVATIVES AS ESTROGEN RECEPTOR DEGRADERS” (REGENTS OF THE UNIVERSITY OF MICHIGAN, priority 2022, published 2026).

ER, sequence (P03372 whole entry): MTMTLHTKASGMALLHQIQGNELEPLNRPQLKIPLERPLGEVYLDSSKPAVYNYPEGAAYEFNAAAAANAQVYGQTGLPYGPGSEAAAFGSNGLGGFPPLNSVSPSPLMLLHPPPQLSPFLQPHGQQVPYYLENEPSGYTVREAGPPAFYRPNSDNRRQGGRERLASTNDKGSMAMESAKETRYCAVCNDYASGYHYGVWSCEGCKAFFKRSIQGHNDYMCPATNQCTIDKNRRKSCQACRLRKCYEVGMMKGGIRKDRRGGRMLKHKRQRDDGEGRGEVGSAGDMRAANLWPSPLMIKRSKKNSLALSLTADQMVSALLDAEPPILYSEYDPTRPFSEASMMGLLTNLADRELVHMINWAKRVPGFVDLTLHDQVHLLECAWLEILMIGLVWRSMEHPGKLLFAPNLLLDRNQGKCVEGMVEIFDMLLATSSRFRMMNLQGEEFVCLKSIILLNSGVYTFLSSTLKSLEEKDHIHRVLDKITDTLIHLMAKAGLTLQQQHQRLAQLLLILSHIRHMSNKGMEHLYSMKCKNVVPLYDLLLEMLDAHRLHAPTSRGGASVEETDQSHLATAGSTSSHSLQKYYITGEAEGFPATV

This test concerns the target ER (Homo sapiens (Human), UniProt P03372). Description: Western blot analysis (Compounds B1-B278). The class given is cell-based. The conditions noted are these: ER degradation by traditional Western blot; DC50 classes. Put shortly:
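Relative target-protein levels come from densitometry of immunoblots, normalized to GAPDH. Lysates from treated cells were prepared in RIPA buffer (pH 7.6) containing protease inhibitors, and equal protein amounts, checked by BCA, were separated on 10% gels and blotted onto PVDF.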
In the case of `C[C@@H]1Cc2c([nH]c3ccccc23)[C@@H](c2c(F)cc(C3CCC(C(=O)N4CCC(N5Cc6cc7c(cc6C5)C(=O)N(C5CCC(=O)NC5=O)C7)CC4)CC3)cc2F)N1CC(F)F` (stereo partly drawn) [Compound B84, 3-(6-(1-(4-(4-((1R,3R)-2-(2,2-difluoroethyl)-3-methyl-2,3,4,9-tetrahydro-1H-pyrido[3,4-b]indol-1-yl)-3,5-difluorophenyl)cyclohexane-1-carbonyl)piperidin-4-yl)-1-oxo-3,5,6,7-tetrahydropyrrolo[3,4-f]isoindol-2(1H)-yl)piperidine-2,6-dione], the “Traditional Western Degradation Potency” value is “A (“A”: <10 nM)”.

Take `C[C@@H]1Cc2c([nH]c3ccccc23)[C@@H](c2c(F)cc(C3CCC(CN4CCC(N5Cc6cc7c(cc6C5)C(=O)N(C5CCC(=O)NC5=O)C7)CC4)CC3)cc2F)N1CC(F)F` (stereo partly drawn) [Compound B85, 3-(6-(1-((4-(4-((1R,3R)-2-(2,2-difluoroethyl)-3-methyl-2,3,4,9-tetrahydro-1H-pyrido[3,4-b]indol-1-yl)-3,5-difluorophenyl)cyclohexyl)methyl)piperidin-4-yl)-1-oxo-3,5,6,7-tetrahydropyrrolo[3,4-f]isoindol-2(1H)-yl)piperidine-2,6-dione]: the “Traditional Western Degradation Potency” value is “B (“B”: 10-100 nM)”.

On to `C[C@@H]1Cc2c([nH]c3ccccc23)[C@@H](c2c(F)cc(-c3cnc(C(=O)N4CCC(N5Cc6cc7c(cc6C5)C(=O)N(C5CCC(=O)NC5=O)C7=O)CC4)nc3)cc2F)N1CC(F)F` (stereo partly drawn) [Compound B86, 6-(1-(5-(4-((1R,3R)-2-(2,2-difluoroethyl)-3-methyl-2,3,4,9-tetrahydro-1H-pyrido[3,4-b]indol-1-yl)-3,5-difluorophenyl)pyrimidine-2-carbonyl)piperidin-4-yl)-2-(2,6-dioxopiperidin-3-yl)-6,7-dihydropyrrolo[3,4-f]isoindole-1,3(2H,5H)-dione], for which the “Traditional Western Degradation Potency” value was “B (“B”: 10-100 nM)”.

Consider `C[C@@H]1Cc2c([nH]c3ccccc23)[C@@H](c2c(F)cc(-c3ccc(C(=O)N4CCC(N5Cc6cc7c(cc6C5)C(=O)N(C5CCC(=O)NC5=O)C7=O)CC4)nc3)cc2F)N1CC(F)F` (stereo partly drawn) [Compound B87, 6-(1-(5-(4-((1R,3R)-2-(2,2-difluoroethyl)-3-methyl-2,3,4,9-tetrahydro-1H-pyrido[3,4-b]indol-1-yl)-3,5-difluorophenyl)picolinoyl)piperidin-4-yl)-2-(2,6-dioxopiperidin-3-yl)-6,7-dihydropyrrolo[3,4-f]isoindole-1,3(2H,5H)-dione], for which the “Traditional Western Degradation Potency” value was “B (“B”: 10-100 nM)”.

Regarding `C[C@@H]1Cc2c([nH]c3ccccc23)[C@@H](c2c(F)cc(-c3ccc(CN4CCC(N5Cc6cc7c(cc6C5)C(=O)N(C5CCC(=O)NC5=O)C7=O)CC4)nc3)cc2F)N1CC(F)F` (stereo partly drawn) [Compound B88, 6-(1-((5-(4-((1R,3R)-2-(2,2-difluoroethyl)-3-methyl-2,3,4,9-tetrahydro-1H-pyrido[3,4-b]indol-1-yl)-3,5-difluorophenyl)pyridin-2-yl)methyl)piperidin-4-yl)-2-(2,6-dioxopiperidin-3-yl)-6,7-dihydropyrrolo[3,4-f]isoindole-1,3(2H,5H)-dione], the “Traditional Western Degradation Potency” value is given as “C (“C”: >100 nM)”.

Regarding `C[C@@H]1Cc2c([nH]c3ccccc23)[C@@H](c2c(F)cc(-c3ccc(C(=O)N4CCC(N5Cc6cc7c(cc6C5)C(=O)N(C5CCC(=O)NC5=O)C7=O)CC4)cn3)cc2F)N1CC(F)F` (stereo partly drawn) [Compound B89, 6-(1-(6-(4-((1R,3R)-2-(2,2-difluoroethyl)-3-methyl-2,3,4,9-tetrahydro-1H-pyrido[3,4-b]indol-1-yl)-3,5-difluorophenyl)nicotinoyl)piperidin-4-yl)-2-(2,6-dioxopiperidin-3-yl)-6,7-dihydropyrrolo[3,4-f]isoindole-1,3(2H,5H)-dione], the “Traditional Western Degradation Potency” value is given as “A (“A”: <10 nM)”.

`C[C@@H]1Cc2c([nH]c3ccccc23)[C@@H](c2c(F)cc(-c3ccc(C(=O)N4CCC(N5Cc6cc7c(cc6C5)C(=O)N(C5CCC(=O)NC5=O)C7=O)CC4)nn3)cc2F)N1CC(F)F` (stereo partly drawn) [Compound B91, 6-(1-(6-(4-((1R,3R)-2-(2,2-difluoroethyl)-3-methyl-2,3,4,9-tetrahydro-1H-pyrido[3,4-b]indol-1-yl)-3,5-difluorophenyl)pyridazine-3-carbonyl)piperidin-4-yl)-2-(2,6-dioxopiperidin-3-yl)-6,7-dihydropyrrolo[3,4-f]isoindole-1,3(2H,5H)-dione]: the “Traditional Western Degradation Potency” value is listed as “B (“B”: 10-100 nM)”.

`C[C@@H]1Cc2c([nH]c3ccccc23)[C@@H](c2c(F)cc(-c3ncc(C(=O)N4CCC(N5Cc6cc7c(cc6C5)C(=O)N(C5CCC(=O)NC5=O)C7=O)CC4)cn3)cc2F)N1CC(F)F` (stereo partly drawn) [Compound B92, 6-(1-(2-(4-((1R,3R)-2-(2,2-difluoroethyl)-3-methyl-2,3,4,9-tetrahydro-1H-pyrido[3,4-b]indol-1-yl)-3,5-difluorophenyl)pyrimidine-5-carbonyl)piperidin-4-yl)-2-(2,6-dioxopiperidin-3-yl)-6,7-dihydropyrrolo[3,4-f]isoindole-1,3(2H,5H)-dione]: the “Traditional Western Degradation Potency” value is “A (“A”: <10 nM)”.

On to `C[C@@H]1Cc2c([nH]c3ccccc23)[C@@H](c2c(F)cc(-c3ccc(C(=O)N4CCC(N5Cc6cc7c(cc6C5)C(=O)N(C5CCC(=O)NC5=O)C7=O)CC4)cc3)cc2F)N1CC(F)F` (stereo partly drawn) [Compound B93, 6-(1-(4′-((1R,3R)-2-(2,2-difluoroethyl)-3-methyl-2,3,4,9-tetrahydro-1H-pyrido[3,4-b]indol-1-yl)-3′,5′-difluoro-[1,1′-biphenyl]-4-carbonyl)piperidin-4-yl)-2-(2,6-dioxopiperidin-3-yl)-6,7-dihydropyrrolo[3,4-f]isoindole-1,3(2H,5H)-dione], for which the “Traditional Western Degradation Potency” value is “A (“A”: <10 nM)”.

Take `C[C@@H]1Cc2c([nH]c3ccccc23)[C@@H](c2c(F)cc(C3CCN(C(=O)C4CCC(N5Cc6cc7c(cc6C5)C(=O)N(C5CCC(=O)NC5=O)C7=O)CC4)CC3)cc2F)N1CC(F)F` (stereo partly drawn) [Compound B94, 6-(4-(4-(4-((1R,3R)-2-(2,2-difluoroethyl)-3-methyl-2,3,4,9-tetrahydro-1H-pyrido[3,4-b]indol-1-yl)-3,5-difluorophenyl)piperidine-1-carbonyl)cyclohexyl)-2-(2,6-dioxopiperidin-3-yl)-6,7-dihydropyrrolo[3,4-f]isoindole-1,3(2H,5H)-dione]: the “Traditional Western Degradation Potency” value was “B (“B”: 10-100 nM)”.

For the compound `C[C@@H]1Cc2c([nH]c3ccccc23)[C@@H](c2c(F)cc(C3CCN(C[C@H]4CC[C@H](N5Cc6cc7c(cc6C5)C(=O)N(C5CCC(=O)NC5=O)C7=O)CC4)CC3)cc2F)N1CC(F)F` (stereo partly drawn) [Compound B95, 6-((1R,4r)-4-((4-(4-((1R,3R)-2-(2,2-difluoroethyl)-3-methyl-2,3,4,9-tetrahydro-1H-pyrido[3,4-b]indol-1-yl)-3,5-difluorophenyl)piperidin-1-yl)methyl)cyclohexyl)-2-(2,6-dioxopiperidin-3-yl)-6,7-dihydropyrrolo[3,4-f]isoindole-1,3(2H,5H)-dione], the “Traditional Western Degradation Potency” value is listed as “C (“C”: >100 nM)”.

With `C[C@@H]1Cc2c([nH]c3ccccc23)[C@@H](c2c(F)cc(C3CCN(C[C@H]4CC[C@H](N5Cc6cc7c(cc6C5)C(=O)N(C5CCC(=O)NC5=O)C7=O)CC4)CC3)cc2F)N1CC(F)F` (stereo partly drawn) [Compound B96, 6-((1R,4r)-4-((4-(4-((1R,3R)-2-(2,2-difluoroethyl)-3-methyl-2,3,4,9-tetrahydro-1H-pyrido[3,4-b]indol-1-yl)-3,5-difluorophenyl)piperidin-1-yl)methyl)cyclohexyl)-2-(2,6-dioxopiperidin-3-yl)-6,7-dihydropyrrolo[3,4-f]isoindole-1,3(2H,5H)-dione], the “Traditional Western Degradation Potency” value is reported as “C (“C”: >100 nM)”.

`C[C@@H]1Cc2c([nH]c3ccccc23)[C@@H](c2c(F)cc(C(=O)N3CCC4(CC3)CC(CN3Cc5cc6c(cc5C3)C(=O)N(C3CCC(=O)NC3=O)C6=O)C4)cc2F)N1CC(F)F` (stereo partly drawn) [Compound B97, 6-((7-(4-((1R,3R)-2-(2,2-difluoroethyl)-3-methyl-2,3,4,9-tetrahydro-1H-pyrido[3,4-b]indol-1-yl)-3,5-difluorobenzoyl)-7-azaspiro[3.5]nonan-2-yl)methyl)-2-(2,6-dioxopiperidin-3-yl)-6,7-dihydropyrrolo[3,4-f]isoindole-1,3(2H,5H)-dione]: the “Traditional Western Degradation Potency” value is listed as “C (“C”: >100 nM)”.

For `C[C@@H]1Cc2c([nH]c3ccccc23)[C@@H](c2c(F)cc(CN3CCC4(CC3)CC(CN3Cc5cc6c(cc5C3)C(=O)N(C3CCC(=O)NC3=O)C6=O)C4)cc2F)N1CC(F)F` (stereo partly drawn) [Compound B98, 6-((7-(4-((1R,3R)-2-(2,2-difluoroethyl)-3-methyl-2,3,4,9-tetrahydro-1H-pyrido[3,4-b]indol-1-yl)-3,5-difluorobenzyl)-7-azaspiro[3.5]nonan-2-yl)methyl)-2-(2,6-dioxopiperidin-3-yl)-6,7-dihydropyrrolo[3,4-f]isoindole-1,3(2H,5H)-dione], the “Traditional Western Degradation Potency” value is “C (“C”: >100 nM)”.

Consider `C[C@@H]1Cc2c([nH]c3ccccc23)[C@@H](c2c(F)cc(C(=O)N3CCC4(CCC(CN5Cc6cc7c(cc6C5)C(=O)N(C5CCC(=O)NC5=O)C7=O)CC4)CC3)cc2F)N1CC(F)F` (stereo partly drawn) [Compound B99, 6-((3-(4-((1R,3R)-2-(2,2-difluoroethyl)-3-methyl-2,3,4,9-tetrahydro-1H-pyrido[3,4-b]indol-1-yl)-3,5-difluorobenzoyl)-3-azaspiro[5.5]undecan-9-yl)methyl)-2-(2,6-dioxopiperidin-3-yl)-6,7-dihydropyrrolo[3,4-f]isoindole-1,3(2H,5H)-dione], for which the “Traditional Western Degradation Potency” value is given as “C (“C”: >100 nM)”.

Take `C[C@@H]1Cc2c([nH]c3ccccc23)[C@H](c2c(F)cc(C(=O)N3CCC4(CCC(CN5Cc6cc7c(cc6C5)C(=O)N(C5CCC(=O)NC5=O)C7=O)CC4)CC3)cc2F)N1CC(F)F` (stereo partly drawn) [Compound B100, 6-((3-(4-((1S,3R)-2-(2,2-difluoroethyl)-3-methyl-2,3,4,9-tetrahydro-1H-pyrido[3,4-b]indol-1-yl)-3,5-difluorobenzoyl)-3-azaspiro[5.5]undecan-9-yl)methyl)-2-(2,6-dioxopiperidin-3-yl)-6,7-dihydropyrrolo[3,4-f]isoindole-1,3(2H,5H)-dione]: the “Traditional Western Degradation Potency” value was “C (“C”: >100 nM)”.
